What was measured:
HJV−/− mice = test: Iron overload in a murine model of juvenile hemochromatosis (organ iron by ICP-OES); type: in vivo
Protocol: Compound I, a novel tridentate oral iron chelator, is effective in the treatment of patients with transfusional iron overload and it has not been investigated in primary iron overload. We sought to examine spontaneous iron loading and the effect of Compound I upon the removal of iron in HJV−/− mice with iron overload.
Methods: Inductively-Coupled Plasma Optical Emission Spectrometry (ICP-OES, measurement of elemental iron) determinations in liver, heart, spleen and pancreas were performed at week 8 (study start), 14, 20 and 28 in HJV−/− and wild type (wt) mice (n=6-8), subsequent to MRI measurements in heart and liver. Starting at week 20 three groups of HJV−/− animals received daily 0 (vehicle), 30 or 100 mg/kg Compound I, control wt-mice remained untreated. Iron loading was observed up to 28 weeks (including vehicle group) and the effects of Compound I were assessed by comparing the 28-week groups. MRI R2* measurements were performed using a 4.7T MR imager. For the myocardial and hepatic R2* assessments single slice, ECG gated gradient echo images and single slice transversal gradient echo images were acquired, respectively.

[1] = Exposure of Compound I in mice compared with human studies; type: in vivo; details: mice versus human studies
[2] = Plasma half life within the human body; type: in vivo
[3] = in vivo; cited from earlier work
[4] = subcutaneous, 3 patients with HH; compared with weekly phlebotomy, e.g. 500 ml; cited from earlier work
[5] = 100 mg/kg daily, week 20 to 28, HJV−/− mice, ICP-OES
[6] = hemojuvelin knock out mouse, within 8 weeks of treatment (conclusion)

Compound | effects on organ iron load (HJV−/− mice; 30 mg/kg daily, HJV−/− mice) | effects on organ iron load in liver and heart (HJV−/− mice; 100 mg/kg daily, HJV−/− mice) | pancreas iron (HJV−/− mice; 100 mg/kg daily, HJV−/− mice) | heart iron reduced as compared to the (HJV−/−)-vehicle treated group (HJV−/− mice; [5]) | liver iron reduced as compared to the (HJV−/−)-vehicle treated group (HJV−/− mice; [5]) | liver and heart iron (HJV−/− mice; [6]) | pancreatic iron load (HJV−/− mice; [6]) | lower exposure in mice [1] | half-life [2] | half life within the bloodstream [3] | effectiveness of treatment of iron overload [4]
O=C(O)c1ccc(-n2nc(-c3ccccc3O)nc2-c2ccccc2O)cc1 [Compound I, 4-[3,5-bis(2-hydroxyphenyl)-[1,2,4]triazol-1-yl]benzoic acid] | modest | quite pronounced | clear trend to lower levels | 41% | 63% | significantly reduced | trend to improvement | 6-9 times | 8 to 16 h |  | 
CC(=O)N(O)CCCCCNC(=O)CCC(=O)N(O)CCCCCNC(=O)CCC(=O)N(O)CCCCCN [DFO, desferrioxamine] |  |  |  |  |  |  |  |  |  | short | as effective as weekly phlebotomy

Source: patent US20110294861A1, “METHOD OF TREATMENT OF HEREDITARY HEMOCHROMATOSIS” (NOVARTIS AG, priority 2006, published 2011)
